Activity calls are given as the source filed them.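 The calls were made as follows: active = compounds giving half or more protection of infected cells from virus-caused growth loss, again on retest; inactive = the rest.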 Where a SMILES comes first, the peptide text is derived from it. [ ]: non-standard residue; d: D form. The star is where a group is joined. ξ: configuration not given here. NMeF = CN[C@@H](Cc1ccccc1)C(=O)O; NMeV = CN[C@H](C(=O)O)C(C)C; ξNMeN = CNC(CC(N)=O)C(=O)O; NMeA = CN[C@@H](C)C(=O)O; ξNMeV = CNC(C(=O)O)C(C)C; Boc = CC(C)(C)OC(=O)*
Tested on: CEM cells HIV-1 protection, formazan growth assay
Assay: NCI AIDS Antiviral Assay
Details: for IC50: measured here: growth of uninfected CEM cells
Summary of the method: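 Category rules: moderately active means at least 50% protection on retest, and confirmed active means 100% protection reproducibly. The underlying data came from a formazan growth assay in HIV-1-infected CEM cells.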

**Q.** For `O=C(Nc1ccc(/C=C/c2ccc(NC(=O)c3cc(S(=O)(=O)O)c4cccnc4c3O)cc2S(=O)(=O)O)c(S(=O)(=O)O)c1)Nc1ccc(/C=C/c2ccc(NC(=O)c3cc(S(=O)(=O)O)c4cccnc4c3O)cc2S(=O)(=O)O)c(S(=O)(=O)O)c1`, which EC50 is on record?
**A.** 5.5 µM

**Q.** And the IC50?
**A.** 50.1 µM

**Q.** `CCOC(=O)CCCNC(=O)CCCCC(=O)N(C)C` was tested. Which EC50 did it give?
**A.** > 200 µM

**Q.** What about the IC50 of the same compound?
**A.** > 200 µM

**Q.** With `CC12O[C@]3([C@H](C(=O)N4CCOC43C)[C@H]1Cl)[C@H]1O[C@H]12` (stereo partly drawn) as the compound, how does the outcome read?
**A.** inactive

**Q.** How did the EC50 turn out when `Cc1cc2nc(N)n[n+]([O-])c2cc1C` was run?
**A.** > 200 µM

**Q.** What about the IC50 of the same compound?
**A.** > 200 µM

**Q.** `c1ccc(CNCCCNCCCCNCCCNCc2ccccc2)cc1` was tested. Which EC50 did it give?
**A.** > 15.1 µM

**Q.** What about the IC50 of the same compound?
**A.** 1.62 µM

**Q.** Which EC50 does the source give for `O=c1c2cc(-c3ccccc3)cnc2sn1-c1ccc(Br)cc1` here?
**A.** 110 µM

**Q.** What about the IC50 of the same compound?
**A.** 186 µM

**Q.** With `CC1=NC(=Cc2ccc([N+](=O)[O-])cc2)C(=O)N1n1c(-c2ccccc2)nc2ccccc2c1=O` as the compound, how does the EC50 read?
**A.** > 200 µM

**Q.** What about the IC50 of the same compound?
**A.** 34.7 µM

**Q.** For `O/N=C1/C(=C/c2ccc(F)cc2)CCCC1C(NO)c1ccc(F)cc1` (stereo not drawn), which EC50 is on record?
**A.** > 2.88 µM

**Q.** And the IC50?
**A.** > 2.88 µM

**Q.** `N=C(N)SCCc1cn2ccccc2n1` was tested. Which EC50 did it give?
**A.** > 851 µM

**Q.** And the IC50?
**A.** 42.7 µM

**Q.** Which EC50 does the source give for `COc1ccc2c(c1)CCc1c-2n(CCN2CCCCC2)c2ccc(OC)cc12` here?
**A.** > 100 µM

**Q.** What about the IC50 of the same compound?
**A.** > 100 µM

**Q.** `CC1C2C=C(O)C(=O)C(C2=O)C1c1ccccc1` (stereo not drawn) was tested. Which EC50 did it give?
**A.** > 741 µM

**Q.** What about the IC50 of the same compound?
**A.** 141 µM

**Q.** `O=C1CCC(c2nc3cc(Cl)ccc3o2)C(=O)N1` (stereo not drawn) was tested. Which EC50 did it give?
**A.** > 245 µM

**Q.** And the IC50?
**A.** > 245 µM

**Q.** How did the EC50 turn out when `Cc1cccc(Nc2nc3ccccc3nc2NS(=O)(=O)c2ccc(N)cc2)c1` was run?
**A.** > 200 µM

**Q.** What about the IC50 of the same compound?
**A.** 112 µM

**Q.** `COC(=O)c1cc(C(=O)c2cc(Br)c(OC)c(C(=O)OC)c2)cc(Br)c1OC` was tested. Which EC50 did it give?
**A.** > 200 µM

**Q.** What about the IC50 of the same compound?
**A.** 67.6 µM

**Q.** Which results are given for `COc1c(Br)cc(/C=C(\C#N)c2cccnc2)cc1Br`?
**A.** EC50: > 200 µM; IC50: 25.1 µM

**Q.** `CC(=O)N=C1N(/C=C2\C(=O)Oc3ccccc3C2=O)C(=O)/C(=C/c2ccc(NC(C)=O)cc2)N1C` was tested. Which EC50 did it give?
**A.** > 200 µM

**Q.** And the IC50?
**A.** > 200 µM

**Q.** For `S=C(NCCc1ccccn1)N/N=C/c1ccccn1`, which EC50 is on record?
**A.** > 2 µM

**Q.** And the IC50?
**A.** 0.0257 µM

**Q.** Which results are given for `OCC1(CNc2cc(Cl)ncn2)CCC1`?
**A.** EC50: > 200 µM; IC50: > 200 µM

**Q.** `Nc1ccc(/C=C\c2ccc([N+](=O)[O-])cc2S(=O)(=O)O)c(S(=O)(=O)O)c1` was tested. Which EC50 did it give?
**A.** > 200 µM

**Q.** And the IC50?
**A.** > 200 µM

**Q.** What does the source list for `O=C(O)c1cc(Cl)cc(NC(=O)C(Cl)Cl)c1Cl`?
**A.** EC50: > 794 µM; IC50: 617 µM

**Q.** With `CCOC(=O)CNc1c(OCc2ccccc2)c(=O)c1=O` as the compound, how does the EC50 read?
**A.** > 200 µM

**Q.** And the IC50?
**A.** > 200 µM

**Q.** Which outcome does the source give for `CC(=O)CCC1(c2ccccc2)OC(=O)C(C#N)=C1c1ccccc1` (stereo not drawn) here?
**A.** inactive

**Q.** Which EC50 does the source give for `ON(CCc1ccccn1)CCc1ccccn1` here?
**A.** > 200 µM

**Q.** What about the IC50 of the same compound?
**A.** > 200 µM

**Q.** Which EC50 does the source give for `CC(=O)Nc1ccc(/C=C/C(=O)c2sc(-n3nc(-c4ccccc4)cc3-c3ccccc3)nc2C)cc1` here?
**A.** > 20 µM

**Q.** What about the IC50 of the same compound?
**A.** 17 µM

**Q.** What does the source list for `Brc1ccc2c(-c3nc(-c4c[nH]c5ccccc45)cs3)c[nH]c2c1`?
**A.** EC50: > 100 µM; IC50: 6.46 µM

**Q.** What does the source list for `COC(=O)[C@H](C)N(C)C(=O)C(CC(N)=O)N(C)C(=O)[C@H](Cc1ccccc1)N(C)C(=O)[C@@H]1CCCN1C(=O)[C@H](C(C)C)N(C)C(=O)C(C(C)C)N(C)C(=O)[C@@H](NC(=O)OC(C)(C)C)C(C)C` (stereo partly drawn) (Boc-V[ξNMeV][NMeV]P[NMeF][ξNMeN][NMeA]-OMe)?
**A.** EC50: > 53.7 µM; IC50: 50.1 µM

**Q.** Which EC50 does the source give for `COc1cccc(C2c3cc4c(cc3OC(N3CCCC3)C2c2ccccc2)OCO4)c1O` (stereo not drawn) here?
**A.** > 200 µM

**Q.** And the IC50?
**A.** 3.16 µM

**Q.** With `CCOC(=O)C(/C(=N\NC(=O)OC)C(=O)Nc1cc(OC)ccc1OC)c1cnc2ccccc2n1` (stereo not drawn) as the compound, how does the EC50 read?
**A.** 81.3 µM

**Q.** And the IC50?
**A.** 138 µM

**Q.** For `COc1ccc(C(C)c2cc3c(cc2OC)OCO3)cc1` (stereo not drawn), which EC50 is on record?
**A.** > 66.1 µM

**Q.** What about the IC50 of the same compound?
**A.** 0.427 µM

**Q.** For `CC1=C(C)SC(=C2Sc3nc(O)[nH]c(=O)c3S2)S1`, which EC50 is on record?
**A.** > 200 µM

**Q.** What about the IC50 of the same compound?
**A.** 145 µM

**Q.** How did the EC50 turn out when `COC(=O)c1oc([N+](=O)[O-])c(-c2ccccc2)c1-c1ccccc1` was run?
**A.** > 57.5 µM

**Q.** What about the IC50 of the same compound?
**A.** > 57.5 µM

**Q.** `COc1ccc(CCNC(=S)/N=C\C(C(=O)c2ccccc2)=C(\O)c2ccccc2)cc1OC` was tested. Which outcome did it give?
**A.** inactive

**Q.** `CCOC(=O)C(C)c1nc2ccc(C(F)(F)F)cc2[nH]c1=O` (stereo not drawn) was tested. Which EC50 did it give?
**A.** > 200 µM

**Q.** What about the IC50 of the same compound?
**A.** 110 µM

— PubChem BioAssay AID179 (DTP/NCI, 2004)
